This note sets out measurements from paper PMC5403886, “A Novel Spiro-Heterocyclic Compound Identified by the Silkworm Infection Model Inhibits Transcription in Staphylococcus aureus” (Frontiers in Microbiology, 2017).

Structures are written as SMILES.

In the test the target is T1, SigA (primary sigma factor of RNA polymerase) (Staphylococcus aureus, UniProt P0A0J0).
T1 construct: His-tagged recombinant SigA (sigA from S. aureus RN4220, pET28a)
Put plainly: pull-down with His-tagged SigA on cobalt magnetic beads, HPLC of eluted compound. The test is classed as binding.

T1 sequence (P0A0J0 whole entry): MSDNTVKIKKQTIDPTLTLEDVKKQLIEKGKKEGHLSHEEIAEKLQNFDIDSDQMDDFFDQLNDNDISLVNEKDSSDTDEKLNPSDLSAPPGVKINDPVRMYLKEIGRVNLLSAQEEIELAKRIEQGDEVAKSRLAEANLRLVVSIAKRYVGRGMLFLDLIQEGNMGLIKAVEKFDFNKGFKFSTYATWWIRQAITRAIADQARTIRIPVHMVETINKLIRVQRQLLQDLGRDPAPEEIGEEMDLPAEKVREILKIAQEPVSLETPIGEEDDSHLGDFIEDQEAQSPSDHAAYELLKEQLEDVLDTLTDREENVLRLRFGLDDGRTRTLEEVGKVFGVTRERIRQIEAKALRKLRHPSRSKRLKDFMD

Regarding `CCCNC(=O)N1CCC2(CC1)Nc1cc(F)ccc1-n1cccc12` [GPI0363, 7-fluoro-N-propylspiro[5H-pyrrolo[1,2-a]quinoxaline-4,4′-piperidine]-1′-carboxamide], the “pull-down with His-tagged SigA on cobalt magnetic beads, HPLC of eluted compound” value was “The peak of GPI0363 appeared when mixed with SigA whereas the peak was not observed when SigA was omitted”.
